{"source": "patent US4307114A", "about": "“Aldose reductase inhibition by (Z)-5-fluoro-2-methyl-1-[[4-(methylsulfinyl)phenyl]methylene]-1H-indene- 3-acetic acid” (Ayerst, McKenna & Harrison, Inc., priority 1980, dated 1981)", "key": {"lens aldose reductase": {"molecular_target": "T1, lens aldose reductase (Bos taurus, UniProt P16116)", "T1 construct": "preparation of the enzyme from bovine lens; from tissue; host or cells: bovine lens", "assay": "in vitro aldose reductase inhibition test (modified Hayman and Kinoshita procedure, enzyme from bovine lens)", "type": "biochemical", "experimental": "In the present case the procedure of Hayman and Kinoshita is modified in that the final chromatography step is omitted in the preparation of the enzyme from bovine lens.\nThe following results were obtained when sulindac was evaluated in the above in vitro test: […]"}, "galactosaemic rats": {"test_system": "galactosaemic rats", "assay": "dulcitol accumulation in lenses and sciatic nerves of galactosaemic rats", "type": "in vivo, rat", "settings": "for Dulcitol Accumulation Sicatic Nerves Percent Decrease / Dulcitol Accumulation Lenses Percent Decrease / Dulcitol Accumulation Sicatic Nerves / Dulcitol Accumulation Lenses: four days", "excerpt": "The aldose reductase inhibiting property of sulindac and its utilization in diminishing and alleviating diabetic complications also are demonstrable in experiments using galactosaemic rats, see D. Dvornik et al., Science, 182, 1146 (1973). Such experiments are exemplified hereinbelow after the listing of the following general comments pertaining to these experiments:\n(a) Four or more groups of six male rats, 50-70 g, Sprague-Dawley strain, were used. The first group, the control group, was fed a mixture of laboratory chow (rodent laboratory chow, Purina) and glucose at 20% (w/w %) concentration. The untreated galactosaemic group was fed a similar diet in which galactose is substituted for glucose. The other groups were fed diets containing various amounts of sulindac in the galactose containing diet. The concentration of galactose in the diet of the treated groups was the same as that for the untreated galactosaemic group.\n(b) After four days, the animals were killed by decapitation. The eyeballs were removed and punctured with a razor blade; the freed lenses were rolled gently on filter paper and weighed. The sciatic nerves were dissected as completely as possible and weighed. Both tissues were frozen and kept up to two weeks before being analyzed for dulcitol.\n(c) The tissues were homoginized in 5% (w/v) trichloroacetic acid and the polyol determination on the extracts was performed by a modification of the procedure of M. Kraml and L. Cosyns, Clin. Biochem., 2, 373 (1969). Only two minor reagent changes were made: (a) The rinsing mixture was an aqueous 5% (w/v) trichloroacetic acid solution and (b) the stock solution was prepared by dissolving 25 mg of dulcitol in 100 ml of an aqueous trichloroacetic acid solution. [N.B.: For each experiment the average value found in the tissue from rats fed the glucose diet was substracted from the individual values found in the corresponding rat tissue to obtain the amount of polyol accumulated]."}, "[1]": {"settings": "Experiment 2, 62 mg/kg/day in diet, p < 0.01"}}, "data": [{"smiles": "CC1=C(CC(=O)O)c2cc(F)ccc2/C1=C\\c1ccc([S+](C)[O-])cc1", "note": "(stereo not drawn) [Sulindac, (Z)-5-Fluoro-2-methyl-1-[[4-(methylsulfinyl)phenyl]methylene]-1H-indene-3-acetic acid]", "values": [{"measurement": "inhibition of lens aldose reductase (in words)", "setting": "lens aldose reductase", "value": "potent inhibitor of lens aldose reductase"}, {"measurement": "Percent Inhibition", "setting": "lens aldose reductase; concentration 10^-5 Mole/l", "value": 88, "unit": "%"}, {"measurement": "Percent Inhibition", "setting": "lens aldose reductase; concentration 10^-6 Mole/l", "value": 60, "unit": "%"}, {"measurement": "Percent Inhibition", "setting": "lens aldose reductase; concentration 10^-7 Mole/l", "value": 18, "unit": "%"}, {"measurement": "Dulcitol Accumulation Sicatic Nerves Percent Decrease", "setting": "galactosaemic rats; Experiment 1, 31 mg/kg/day in diet, p < 0.001", "value": 39, "unit": "%"}, {"measurement": "Dulcitol Accumulation Lenses Percent Decrease", "setting": "galactosaemic rats; Experiment 1, 31 mg/kg/day in diet, t test N.S.", "value": 8, "unit": "%"}, {"measurement": "Dulcitol Accumulation Sicatic Nerves", "setting": "galactosaemic rats; Experiment 1, 31 mg/kg/day in galactose diet, untreated 1.67 ± 0.08", "value": "1.02 ± 0.09", "unit": "µg/mg"}, {"measurement": "Dulcitol Accumulation Lenses", "setting": "galactosaemic rats; Experiment 1, 31 mg/kg/day in galactose diet, untreated 12.01 ± 0.38", "value": "11.10 ± 0.28", "unit": "µg/mg"}, {"measurement": "Dulcitol Accumulation Lenses Percent Decrease", "setting": "galactosaemic rats; Experiment 2, 25 mg/kg/day in diet, p < 0.01", "value": 14, "unit": "%"}, {"measurement": "Dulcitol Accumulation Sicatic Nerves Percent Decrease", "setting": "galactosaemic rats; Experiment 2, 25 mg/kg/day in diet, t test N.S.", "value": 36, "unit": "%"}, {"measurement": "Dulcitol Accumulation Sicatic Nerves", "setting": "galactosaemic rats; Experiment 2, 25 mg/kg/day in galactose diet, untreated 1.30 ± 0.14", "value": "0.83 ± 0.19", "unit": "µg/mg"}, {"measurement": "Dulcitol Accumulation Lenses", "setting": "galactosaemic rats; Experiment 2, 25 mg/kg/day in galactose diet, untreated 12.10 ± 0.30", "value": "10.46 ± 0.32", "unit": "µg/mg"}, {"measurement": "Dulcitol Accumulation Lenses Percent Decrease", "setting": "galactosaemic rats; Experiment 2, 47 mg/kg/day in diet, p < 0.01", "value": 12, "unit": "%"}, {"measurement": "Dulcitol Accumulation Sicatic Nerves Percent Decrease", "setting": "galactosaemic rats; Experiment 2, 47 mg/kg/day in diet, p < 0.05", "value": 34, "unit": "%"}, {"measurement": "Dulcitol Accumulation Sicatic Nerves", "setting": "galactosaemic rats; Experiment 2, 47 mg/kg/day in galactose diet, untreated 1.30 ± 0.14", "value": "0.85 ± 0.10", "unit": "µg/mg"}, {"measurement": "Dulcitol Accumulation Lenses", "setting": "galactosaemic rats; Experiment 2, 47 mg/kg/day in galactose diet, untreated 12.10 ± 0.30", "value": "10.71 ± 0.22", "unit": "µg/mg"}, {"measurement": "Dulcitol Accumulation Lenses Percent Decrease", "setting": "galactosaemic rats; [1]", "value": 17, "unit": "%"}, {"measurement": "Dulcitol Accumulation Sicatic Nerves Percent Decrease", "setting": "galactosaemic rats; [1]", "value": 49, "unit": "%"}, {"measurement": "Dulcitol Accumulation Sicatic Nerves", "setting": "galactosaemic rats; Experiment 2, 62 mg/kg/day in galactose diet, untreated 1.30 ± 0.14", "value": "0.67 ± 0.04", "unit": "µg/mg"}, {"measurement": "Dulcitol Accumulation Lenses", "setting": "galactosaemic rats; Experiment 2, 62 mg/kg/day in galactose diet, untreated 12.10 ± 0.30", "value": "10.06 ± 0.43", "unit": "µg/mg"}, {"measurement": "accumulation of dulcitol in the lenses and sciatic nerves of rats fed galactose (in words)", "setting": "galactosaemic rats; as compared to an untreated animal", "value": "diminishes and alleviates the accumulation of dulcitol"}]}]}
